Square brackets hold non-standard residues; d marks the D form. Peptide text beside a SMILES is read from it. Hyp = O=C(O)[CH]1C[CH](O)CN1; Phe(ol) = N[CH](CO)Cc1ccccc1; Iva = CC[C](C)(N)C(=O)O; Aib = CC(C)(N)C(=O)O
Columns and labels:
[1] = solubility (physicochemical properties)
Text: (§1) The physicochemical and spectroscopic properties of the cephaibols according to the invention can be summarized as follows: […]

[2] = stability (physicochemical properties); details: in neutral, mildly acidic and mildly alkaline medium
Text: as §1

In the case of `CCC(C)(NC(=O)C(CC(C)C)NC(=O)C(C)NC(=O)C(C)(C)NC(=O)C(C)(C)NC(=O)C(C)(C)NC(=O)C(C)(C)NC(=O)C(Cc1ccccc1)NC(C)=O)C(=O)NC(C)(C)C(=O)N1CC(O)CC1C(=O)NC(CCC(N)=O)C(=O)NC(C)(CC)C(=O)N1CC(O)CC1C(=O)NC(C)(C)C(=O)N1CCCC1C(=O)NC(CO)Cc1ccccc1` (stereo not drawn) [Cephaibol A1, AcPhe-Aib-Aib-Aib-Aib-Ala-Leu-Iva-Aib-Hyp-Gln-Iva-Hyp-Aib-Pro-Phe-ol] (Ac-F[Aib][Aib][Aib][Aib]AL[Iva][Aib][Hyp]Q[Iva][Hyp][Aib]P[Phe(ol)]; configuration not given here), the “solubility in polar organic solvents” value [1] is reported as “soluble”, the solubility in water [1] is reported as “only slightly soluble” and the stability [2] is reported as “stable”.
In the case of `CCC(C)(NC(=O)C(CC(C)C)NC(=O)CNC(=O)C(C)(CC)NC(=O)C(C)(C)NC(=O)C(C)(C)NC(=O)C(C)(C)NC(=O)C(Cc1ccccc1)NC(C)=O)C(=O)NC(C)(C)C(=O)N1CC(O)CC1C(=O)NC(CCC(N)=O)C(=O)NC(C)(CC)C(=O)N1CC(O)CC1C(=O)NC(C)(C)C(=O)N1CCCC1C(=O)NC(CO)Cc1ccccc1` (stereo not drawn) [Cephaibol B, AcPhe-Aib-Aib-Aib-Iva-Gly-Leu-Iva-Aib-Hyp-Gln-Iva-Hyp-Aib-Pro-Phe-ol] (Ac-F[Aib][Aib][Aib][Iva]GL[Iva][Aib][Hyp]Q[Iva][Hyp][Aib]P[Phe(ol)]; configuration not given here), the “solubility in polar organic solvents” value [1] is reported as “soluble”, the solubility in water [1] is reported as “only slightly soluble” and the stability [2] is reported as “stable”.
In the case of `CCC(C)(NC(=O)C(CC(C)C)NC(=O)CNC(=O)C(C)(C)NC(=O)C(C)(C)NC(=O)C(C)(C)NC(=O)C(C)(C)NC(=O)C(Cc1ccccc1)NC(C)=O)C(=O)NC(C)(C)C(=O)N1CC(O)CC1C(=O)NC(CCC(N)=O)C(=O)NC(C)(C)C(=O)N1CC(O)CC1C(=O)NC(C)(C)C(=O)N1CCCC1C(=O)NC(CO)Cc1ccccc1` (stereo not drawn) [Cephaibol C, AcPhe-Aib-Aib-Aib-Aib-Gly-Leu-Iva-Aib-Hyp-Gln-Aib-Hyp-Aib-Pro-Phe-ol] (Ac-F[Aib][Aib][Aib][Aib]GL[Iva][Aib][Hyp]Q[Aib][Hyp][Aib]P[Phe(ol)]; configuration not given here), the “solubility in polar organic solvents” value [1] is reported as “soluble”, the solubility in water [1] is reported as “only slightly soluble” and the stability [2] is reported as “stable”.
In the case of `CC(=O)NC(Cc1ccccc1)C(=O)NC(C)(C)C(=O)NC(C)(C)C(=O)NC(C)(C)C(=O)NC(C)(C)C(=O)NCC(=O)NC(CC(C)C)C(=O)NC(C)(C)C(=O)NC(C)(C)C(=O)N1CC(O)CC1C(=O)NC(CCC(N)=O)C(=O)NC(C)(C)C(=O)N1CC(O)CC1C(=O)NC(C)(C)C(=O)N1CCCC1C(=O)NC(CO)Cc1ccccc1` (stereo not drawn) [Cephaibol D, AcPhe-Aib-Aib-Aib-Aib-Gly-Leu-Aib-Aib-Hyp-Gln-Aib-Hyp-Aib-Pro-Phe-ol] (Ac-F[Aib][Aib][Aib][Aib]GL[Aib][Aib][Hyp]Q[Aib][Hyp][Aib]P[Phe(ol)]; configuration not given here), the “solubility in polar organic solvents” value [1] is reported as “soluble”, the solubility in water [1] is reported as “only slightly soluble” and the stability [2] is reported as “stable”.
For `CCC(C)(NC(=O)C(CCC(N)=O)NC(=O)C1CC(O)CN1C(=O)C(C)(C)NC(=O)C(C)(C)NC(=O)C(CC(C)C)NC(=O)CNC(=O)C(C)(C)NC(=O)C(C)(C)NC(=O)C(C)(C)NC(=O)C(C)(C)NC(=O)C(Cc1ccccc1)NC(C)=O)C(=O)N1CC(O)CC1C(=O)NC(C)(C)C(=O)N1CCCC1C(=O)NC(CO)Cc1ccccc1` (stereo not drawn) [Cephaibol E, AcPhe-Aib-Aib-Aib-Aib-Gly-Leu-Aib-Aib-Hyp-Gln-Iva-Hyp-Aib-Pro-Phe-ol] (Ac-F[Aib][Aib][Aib][Aib]GL[Aib][Aib][Hyp]Q[Iva][Hyp][Aib]P[Phe(ol)]; configuration not given here), the “solubility in polar organic solvents” value [1] was “soluble”, the solubility in water [1] was “only slightly soluble” and the stability [2] was “stable”.
For `CCC(C)C(NC(=O)C(C)(C)NC(=O)C(CCC(N)=O)NC(=O)C(C)(CC)NC(=O)C(Cc1ccccc1)NC(C)=O)C(=O)NC(C(=O)NC(C)(C)C(=O)NC(CC(C)C)C(=O)NC(C)(C)C(=O)N1CC(O)CC1C(=O)NC(CCC(N)=O)C(=O)NC(C)(C)C(=O)N1CC(O)CC1C(=O)NC(C)(C)C(=O)N1CCCC1C(=O)NC(Cc1ccccc1)C(=O)NC(CO)C(=O)O)C(C)O` (stereo not drawn) [Cephaibol P, AcPhe-Iva-Gln-Aib-Ile-Thr-Aib-Leu-Aib-Hyp-Gln-Aib-Hyp-Aib-Pro-Phe-Ser] (Ac-F[Iva]Q[Aib]IT[Aib]L[Aib][Hyp]Q[Aib][Hyp][Aib]PFS-OH; configuration not given here), the “solubility in polar organic solvents” value [1] was “soluble”, the solubility in water [1] was “only slightly soluble” and the stability [2] was “stable”.
With `CCC(C)C(NC(=O)C(C)(C)NC(=O)C(CCC(N)=O)NC(=O)C(C)(CC)NC(=O)C(Cc1ccccc1)NC(C)=O)C(=O)NC(C(=O)NC(C)(C)C(=O)NC(CC(C)C)C(=O)NC(C)(C)C(=O)N1CCCC1C(=O)NC(CCC(N)=O)C(=O)NC(C)(C)C(=O)N1CC(O)CC1C(=O)NC(C)(C)C(=O)N1CCCC1C(=O)NC(Cc1ccccc1)C(=O)NC(CO)C(=O)O)C(C)O` (stereo not drawn) [Cephaibol Q, AcPhe-Iva-Gln-Aib-Ile-Thr-Aib-Leu-Aib-Pro-Gln-Aib-Hyp-Aib-Pro-Phe-Ser] (Ac-F[Iva]Q[Aib]IT[Aib]L[Aib]PQ[Aib][Hyp][Aib]PFS-OH; configuration not given here) the “solubility in polar organic solvents” value [1] was “soluble”, the solubility in water [1] was “only slightly soluble” and the stability [2] was “stable”.

Source: patent publication US7067112B2, “Cephaibols: novel antiparasitics from Acremonium tubakii, process for their production, and use thereof” (Sanofi-Aventis Deutschland GmbH, priority 1999, dated 2006)
